Measured values from paper PMC7717120 (Bioorganic & medicinal chemistry letters, 2015).
“Also recorded” adds a separate entry of the source.

Tests used:
[1] = tested on: Vero cells; test: Cytotoxicity in Vero cells; format: cell-based, African Green monkey
[2] = tested on: CEM cells
[3] = tested on: primary human PBM cells; test: Cytotoxicity in primary human PBM cells; format: cell-based
[4] = tested on: HIV-1; format: cell-based

Row | SMILES | Toxicity in Vero cells (in words) [1] | Toxicity in CEM cells (in words) [2] | Toxicity in primary human PBM cells (in words) [3] | Anti-HIV-1 activity (in words) [4]
1 | COc1cccc(CNC(=O)Cn2nc3c(c2C)N(C)S(=O)(=O)c2ccccc2-3)c1 [Compound 6f] | toxic | toxic | toxic | 
2 | Cc1c2c(nn1CC(=O)Nc1ccccc1Br)-c1ccccc1S(=O)(=O)N2C [Compound 7c] |  |  |  | effective inhibitors; also recorded: active
3 | Cc1c2c(nn1CC(=O)Nc1cccc(Br)c1)-c1ccccc1S(=O)(=O)N2C [Compound 7d] |  |  |  | effective inhibitors; also recorded: active
4 | Cc1c2c(nn1CC(=O)NCc1ccccc1Br)-c1ccccc1S(=O)(=O)N2C [Compound 6d] | toxic | toxic |  | active
5 | Cc1c2c(nn1CC(=O)NCc1ccc(F)cc1)-c1ccccc1S(=O)(=O)N2C [Compound 6c] |  | toxic |  | 
6 | Cc1c2c(nn1CC(=O)Nc1ccccc1)-c1ccccc1S(=O)(=O)N2C [Compound 7a] |  |  |  | effective inhibitors; also recorded: active
7 | COc1ccccc1CNC(=O)Cn1nc2c(c1C)N(C)S(=O)(=O)c1ccccc1-2 [Compound 6e] | no toxicity | no toxicity | no toxicity | active
8 | Cc1ccc(CNC(=O)Cn2nc3c(c2C)N(C)S(=O)(=O)c2ccccc2-3)cc1 [Compound 6i] | no toxicity | no toxicity | no toxicity | active
9 | COc1cccc(NC(=O)Cn2nc3c(c2C)N(C)S(=O)(=O)c2ccccc2-3)c1 [Compound 7e] | no toxicity |  |  | effective inhibitors; also recorded: active
10 | Cc1c2c(nn1CC(=O)NCc1ccccc1Cl)-c1ccccc1S(=O)(=O)N2C [Compound 6a] | toxic; also recorded: displayed toxicity | no toxicity | no toxicity | active
11 | Cc1c2c(nn1CC(=O)Nc1ccccc1F)-c1ccccc1S(=O)(=O)N2C [Compound 7b] |  |  |  | effective inhibitors; also recorded: active
12 | COc1ccc(CNC(=O)Cn2nc3c(c2C)N(C)S(=O)(=O)c2ccccc2-3)cc1 [Compound 6g] | no toxicity | no toxicity | no toxicity | active
